# Measurements from patent US20100099676A1 (SHIONOGI & CO., LTD., priority 2006, published 2010).
# Columns and labels:
# Assay in all cases: Enzyme inhibiting activity of MMPs, fluorogenic peptide substrate
# Format in all cases: biochemical
# MMP-2 = target: T1, MMP-2 (Homo sapiens, UniProt P08253); conditions: substrate MOCAc-Pro-Leu-Gly-Leu-A2Pr(DNP)-Ala-Arg-NH2, fluorescent intensity
# T1 construct: purchased Calbiochem (EMD/MERCK Biosciences)
# T1 sequence (P08253 110-660): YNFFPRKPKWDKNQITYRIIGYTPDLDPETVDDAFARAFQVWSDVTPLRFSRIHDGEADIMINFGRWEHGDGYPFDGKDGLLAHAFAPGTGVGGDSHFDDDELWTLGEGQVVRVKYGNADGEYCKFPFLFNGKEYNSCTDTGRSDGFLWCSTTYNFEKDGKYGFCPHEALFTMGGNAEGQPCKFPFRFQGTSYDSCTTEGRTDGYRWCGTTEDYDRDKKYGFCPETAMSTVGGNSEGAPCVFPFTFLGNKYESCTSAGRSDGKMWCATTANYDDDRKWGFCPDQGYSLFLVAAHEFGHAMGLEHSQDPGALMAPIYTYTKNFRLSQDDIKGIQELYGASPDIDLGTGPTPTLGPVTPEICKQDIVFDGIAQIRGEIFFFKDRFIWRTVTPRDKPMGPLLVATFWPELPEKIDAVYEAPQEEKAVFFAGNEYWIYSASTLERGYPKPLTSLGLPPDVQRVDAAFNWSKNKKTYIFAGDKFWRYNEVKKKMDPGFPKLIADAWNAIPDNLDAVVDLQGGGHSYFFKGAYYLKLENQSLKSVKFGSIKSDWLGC
# How it was run: (§1)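 Recombinant human enzymes with the fluorogenic substrate MOCAc-Pro-Leu-Gly-Leu-A2Pr(DNP)-Ala-Arg-NH2. Fluorescence was read for enzyme+substrate±inhibitor and substrate±inhibitor blanks.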
# MMP-9 = target: T2, MMP-9 (Homo sapiens, UniProt P14780); conditions: substrate MOCAc-Pro-Leu-Gly-Leu-A2Pr(DNP)-Ala-Arg-NH2, fluorescent intensity
# T2 construct: purchased Calbiochem (EMD/MERCK Biosciences)
# T2 sequence (P14780 94-707): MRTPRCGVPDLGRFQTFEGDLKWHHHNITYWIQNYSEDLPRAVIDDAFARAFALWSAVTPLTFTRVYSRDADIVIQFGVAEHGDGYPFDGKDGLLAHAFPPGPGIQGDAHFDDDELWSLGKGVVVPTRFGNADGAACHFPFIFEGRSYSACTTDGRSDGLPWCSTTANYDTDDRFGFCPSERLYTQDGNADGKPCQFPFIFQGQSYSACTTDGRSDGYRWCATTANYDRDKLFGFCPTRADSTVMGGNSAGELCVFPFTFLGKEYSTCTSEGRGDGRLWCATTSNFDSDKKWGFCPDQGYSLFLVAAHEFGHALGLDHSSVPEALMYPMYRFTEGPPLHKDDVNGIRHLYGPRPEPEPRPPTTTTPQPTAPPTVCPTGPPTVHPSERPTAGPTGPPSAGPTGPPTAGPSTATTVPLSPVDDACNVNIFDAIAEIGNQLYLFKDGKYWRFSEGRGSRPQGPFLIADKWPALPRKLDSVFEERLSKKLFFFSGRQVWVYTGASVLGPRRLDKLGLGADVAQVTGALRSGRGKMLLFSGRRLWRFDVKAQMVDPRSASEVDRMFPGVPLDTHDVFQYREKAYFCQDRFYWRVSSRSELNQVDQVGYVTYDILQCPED
# How it was run: as §1
# MMP-13 = target: T3, MMP-13 (Homo sapiens, UniProt P45452); conditions: APMA-activated proenzyme; substrate MOCAc-Pro-Leu-Gly-Leu-A2Pr(DNP)-Ala-Arg-NH2, fluorescent intensity; read-out: IC50 MMP-13
# T3 construct: purchased Calbiochem (EMD/MERCK Biosciences)
# How it was run: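 Pro-MMP-13 was activated with 1 mM APMA at 37° C for 2 h in 50 mM Tris-HCl pH 7.6, 0.3 M NaCl, 10 mM CaCl2, 0.005% Brij35. Activity was read by fluorescence using MOCAc-Pro-Leu-Gly-Leu-A2Pr(DNP)-Ala-Arg-NH2 substrate, with enzyme and inhibitor blank corrections. IC50 is the concentration giving 50% inhibition.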
SMILES,IC50 (MMP-2) [nM],IC50 (MMP-9) [nM],IC50 (MMP-13) [nM]
"CC(C)[C@@H](NS(=O)(=O)N1CCN(c2ccc(C#Cc3ccnc(C(=O)NCc4cccc(C#N)c4)c3)cc2)CC1)C(=O)O [Compound V-32, (R)-2-(4-{4-[2-(3-cyanobenzylcarbamoyl)-pyridin-4-ylethynyl]-phenyl}-piperazine-1-sulfonylamino)-3-methylbutanoic acid]",1000 to 10000,> 10000,16
"CC(C)CO/N=C/c1c[nH]c2ccc(C#Cc3ccc(N4CCN(S(=O)(=O)N[C@H](C)C(=O)O)CC4)cc3)cc12 [Compound V-43, (R)-2-(4-{4-[3-((E)-isobutoxyiminomethyl)-1H-indol-5-ylethynyl]-phenyl}-piperazine-1-sulfonylamino)-proponic acid]",> 10000,> 10000,19
"CC(C)[C@@H](NS(=O)(=O)N1CCN(c2ccc(C#Cc3ccnc(C(=O)NCc4ccc5oc(=O)n(C)c5c4)c3)cc2)CC1)C(=O)O [Compound V-85, (R)-3-methyl-2-[4-(4-{2-[(3-methyl-2-oxo-2,3-dihydrobenzoxazol-5-ylmethyl)-carbamoyl]-pyridin-4-ylethynyl}-phenyl)-piperazine-1-sulfonylamino]-butanoic acid]",1000 to 10000,> 10000,2
"CC(C)CON=Cc1cccc2ccc(C#Cc3ccc(N4CCN(S(=O)(=O)N[C@H](C)C(=O)O)CC4)cc3)cc12 [III-17, (R)-2-(4-{4-[8-(isobutoxyiminomethyl)-naphthalen-2-ylethynyl]-phenyl}-piperazine-1-sulfonylamino)-proponic acid]",> 10000,> 10000,25
"C[C@@H](NS(=O)(=O)N1CCN(c2ccc(C#Cc3ccc4c(c3)C(=O)N(Cc3ccccc3)CCN4C)cc2)CC1)C(=O)O [Compound V-52, (R)-2-{4-[4-(4-benzyl1-methyl-5-oxo-2,3,4,5-tetrahydro1H-benzo[e][1,4]diazepin-7-ylethynyl)-phenyl]-piperazine-1-sulfonylamino}-proponic acid]",1000 to 10000,1000 to 10000,12
"B.CC(C)[C@@H](NS(=O)(=O)N1CCN(c2ccc(C#Cc3ccnc(C(=O)NCc4ccc(CN(C)C)cc4)c3)cc2)CC1)C(=O)O [III-153, (R)-2-(4-{4-[2-(4-dimethylaminomethylbenzylcarbamoyl)-pyridin-4-ylethynyl]-phenyl}-piperazine-1-sulfonylamino)-3-methylbutanoic acid borane complex]",1000 to 10000,> 10000,4
"C[C@@H](NS(=O)(=O)N1CCN(c2ccc(C#Cc3cccc(C(=O)NCc4ccccc4)c3)cc2)CC1)C(=O)O [Compound I-1, (1)-2-{4-[4-(3-benzylcarbamoylphenylethynyl)-phenyl]-piperazine-1-sulfonylamino}-proponic acid]",100 to 1000,> 10000,2.1
"COC(=O)c1ccc(COc2cccc(-c3csc(C#Cc4ccc(N5CCN(S(=O)(=O)N[C@H](C)C(=O)O)CC5)cc4)n3)c2)cc1 [Compound V-22, 4-[3-(2-{4-[4-((R)-1-carboxyethylsulfamoyl)-piperazin-1-yl]-phenylethynyl}-thiazol-4-yl)-phenoxymethyl]-benzoic acid methyl ester]",> 10000,> 10000,8
"COc1ccc(Cn2ccc3ccc(C#Cc4ccc(N5CCN(S(=O)(=O)N[C@H](C(=O)O)C(C)C)CC5)cc4)cc3c2=O)cc1 [Compound V-37, (S)-2-(4-{4-[2-(4-methoxybenzyl)-1-oxo-1,2-dihydroisoquinolin-7-ylethynyl]-phenyl}-piperazine-1-sulfonylamino)-3-methylbutanoic acid]",> 10000,> 10000,20
"COc1ccc(CNC(=O)c2cc(C#Cc3ccc(N4CCN(S(=O)(=O)NC(C)(C)C(=O)O)CC4)cc3)ccn2)cc1 [Compound V-7, 2-(4-{4-[2-(4-methoxybenzylcarbamoyl)-pyridin-4-ylethynyl]-phenyl}-piperazine-1-sulfonylamino)-2-methylproponic acid]",1000 to 10000,> 10000,12
"C[C@@H](NS(=O)(=O)N1CCN(c2ccc(C#Cc3ccc4c(c3)c(/C=C/Cl)cn4C)cc2)CC1)C(=O)O [Compound V-44, (R)-2-(4-{4-[3-((E)-2-chrolovinyl)-1-methyl1H-indol-5-ylethynyl]-phenyl}-piperazine-1-sulfonylamino)-proponic acid]",1000 to 10000,> 10000,16
"CC(C)[C@@H](NS(=O)(=O)N1CCN(c2ccc(C#Cc3nc(-c4cccc(C(=O)NCC#N)c4)cs3)cc2)CC1)C(=O)O [Compound V-40, (R)-2-[4-(4-{4-[3-(cyanomethylcarbamoyl)-phenyl]-thiazol-2-ylethynyl}-phenyl)-piperazine-1-sulfonylamino]-3-methylbutanoic acid]",1000 to 10000,1000 to 10000,8
"CC(C)[C@@H](NS(=O)(=O)N1CCN(c2ccc(C#Cc3ccc4ncn(Cc5ccc(F)cc5)c(=O)c4c3)cc2)CC1)C(=O)O [Compound V-59, (R)-2-(4-{4-[3-(4-fluorobenzyl)-4-oxo-3,4-dihydroquinazolin-6-ylethynyl]-phenyl}-piperazine-1-sulfonylamino)-3-methylbutanoic acid]",1000 to 10000,> 10000,10
"C[C@@H](NS(=O)(=O)N1CCN(c2ccc(C#Cc3ccc4c(c3)/C(=N\OCc3ccccc3)CCO4)cc2)CC1)C(=O)O [Compound I-113, (R)-2-[4-(4-{4-[(Z)-benzyloxyimino]-chroman-6-ylethynyl}-phenyl)-piperazine-1-sulfonylamino]-proponic acid]",> 10000,> 10000,71

# Second part, the compound after the results:
IC50 (MMP-2) [nM],IC50 (MMP-9) [nM],IC50 (MMP-13) [nM],SMILES
> 10000,> 10000,20,"CC(C)[C@@H](NS(=O)(=O)N1CCN(c2ccc(C#Cc3ccnc(C(=O)NCc4ccc(OC(F)(F)F)cc4)c3)cc2)CC1)C(=O)O [III-196, (R)-3-methyl-2-(4-{4-[2-(4-trifluoromethoxybenzylcarbamoyl)-pyridin-4-ylethynyl]-phenyl}-piperazine-1-sulfonylamino)-butanoic acid]"
1000 to 10000,> 10000,6,"CC(C)[C@@H](NS(=O)(=O)N1CCN(c2ccc(C#Cc3ccnc(C(=O)NCc4cccc(F)c4)c3)cc2)CC1)C(=O)O [III-181, (R)-2-(4-{4-[2-(3-fluorobenzylcarbamoyl)-pyridin-4-ylethynyl]-phenyl}-piperazine-1-sulfonylamino)-3-methylbutanoic acid]"
1000 to 10000,> 10000,5,"CC(C)[C@@H](NS(=O)(=O)N1CCN(c2ccc(C#Cc3ccnc(C(=O)NCc4ccc5c(c4)CCO5)c3)cc2)CC1)C(=O)O [III-200, (R)-2-[4-(4-{2-[(2,3-dihydrobenzofuran-5-ylmethyl)-carbamoyl]-pyridin-4-ylethynyl}-phenyl)-piperazine-1-sulfonylamino]-3-methylbutanoic acid]"
1000 to 10000,> 10000,9,"CCOCCOc1ccc(C#Cc2ccc(N3CCN(S(=O)(=O)N[C@@H](C(=O)O)C(C)C)CC3)cc2)cc1C(=O)NCC#N [III-135, (R)-2-(4-{4-[3-(cyanomethylcarbamoyl)-4-(2-ethoxyethoxy)-phenylethynyl]-phenyl}-piperazine-1-sulfonylamino)-3-methylbutanoic acid]"
1000 to 10000,> 10000,7,"CC(C)[C@@H](NS(=O)(=O)N1CCN(c2ccc(C#Cc3ccnc(C(=O)NCc4ccc(N5CCCCC5)cc4)c3)cc2)CC1)C(=O)O [III-171, (R)-3-methyl-2-(4-{4-[2-(4-piperidin-1-ylbenzylcarbamoyl)-pyridin-4-ylethynyl]-phenyl}-piperazine-1-sulfonylamino)-butanoic acid]"
> 10000,> 10000,4,"C[C@@H](NS(=O)(=O)N1CCN(c2ccc(C#Cc3cccc(-c4ncc(-c5ccc(F)cc5)o4)c3)cc2)CC1)C(=O)O [III-12, (R)-2-[4-(4-{3-[5-(4-fluorophenyl)-oxazol-2-yl]-phenylethynyl}-phenyl)-piperazine-1-sulfonylamino]-proponic acid]"
> 10000,> 10000,26,"CC(=O)c1cccc2ccc(C#Cc3ccc(N4CCN(S(=O)(=O)N[C@@H](CO)C(=O)O)CC4)cc3)cc12 [III-24, (S)-2-{4-[4-(8-acetylnaphthalen-2-ylethynyl)-phenyl]-piperazine-1-sulfonylamino}-3-hydroxyproponic acid]"
